This is an account of results in US20240058371A1, “MOLECULE FOR INDUCING SPONTANEOUS CALCIFICATION OF TUMOR CELLS AND USE THEREOF” (ZHEJIANG UNIVERSITY, priority 2020, published 2024).

Entries after “also recorded” stand apart in the source; their conditions may differ.

The conditions of series [1]: systemic FA administration; cited from earlier work.
Series [2] deals with A549-Luci cells. Description: Mouse model of metastatic lung tumors, small animal in vivo imaging. Details: species or system nude mice. The note with it: 200 mg/kg tail vein, compared with the control group. How it is done: To construct a mouse model of metastatic lung tumors, 3×10^6 A549-Luci cells
were injected into the tail vein of nude mice, followed by injection of targeting peptide (CiP; 200 mg/kg) through the tail vein. Control mice were injected with PBS, 4 mg/kg adriamycin (Dox), and a control peptide ([…], targeting peptide, TP) at the same concentration as the CiP peptide; this experiment investigated whether CiP targeting peptide-induced calcification of A549 cells could inhibit lung cancer growth and metastasis. Tumorigenesis was monitored using a small animal in vivo imaging system.
The above experiments were repeated using the E6[…], E10[…], E16[…], and E30[…] peptides.

In series [3] the test system is human non-small cell lung cancer cells (lines A549, H460, and H1299). Description: Flow cytometry of cell surface-bound FITC-modified targeting peptide, lung cancer cells. Conditions: 100 μg/mL FITC-modified peptide, 30 min, Ca2+ up to 2.75 mM, phosphate up to 1.61 mM. It counts as binding. How it is done:
(§1) The free amino groups of aspartic acid residues in the targeting peptide were reacted with fluorescein isothiocyanate (FITC) in phosphate-buffered saline (PBS) solution for 12 hours, then dialyzed in dialysis bags for 5 days and lyophilized to obtain FITC-modified targeting peptide molecules.

Series [4] deals with A549-Luci cells. Description: Ultrasound and CT imaging of calcified lung cancer, mouse model of pulmonary metastatic tumors. It counts as in vivo, nude mice. The note with it: 200 mg/kg intravenous, 4 weeks after model establishment. How it is done:
(§2) Fifty micrograms of SodA peptide ([…]) and 0.25 mL of incomplete Freund's adjuvant were mixed and subcutaneously injected into the backs of C57 mice. Two weeks later, 50 μg of SodA peptide and 6000 agarose 4B beads dissolved in 0.2 mL PBS were covalently coupled and injected into the tail vein of the same C57 mice to construct a mouse model of pulmonary nodules. Additionally, 3×10^6 A549-Luci cells were injected into the tail vein of nude mice to construct a mouse model of pulmonary metastatic tumors. Some mice underwent intravenous injection of the targeting peptide (200 mg/kg) to induce calcification; simultaneous ultrasound and CT scans of normal lung cancer, calcified lung cancer, and pulmonary nodules were performed at 4 weeks after model establishment.

The next series concerns lung epithelial cells. Description: Electron microscopy / EDX elemental scan of cell surface calcification, lung epithelial cells. It counts as cell-based, human. From the text: (§3) Subsequently, they were subjected to electron microscopy to detect calcification on the cell surface.
A further series deals with pulmonary nodules. Description: Ultrasound and CT imaging, mouse model of pulmonary nodules. The class given is in vivo, C57 mice. Conditions: 200 mg/kg intravenous, 4 weeks after model establishment. The method, then: as §2
Series [5] deals with Beas-2b human lung epithelial cells. Description: CCK8 assay, normal lung epithelial cells. Conditions: 48 hours. The class given is cell-based. Details: dose or concentration left out as unconfirmed.
For series [6], the system named is human non-small cell lung cancer cells (lines A549, H460, and H1299). Description: CCK8 assay, lung cancer cells. Set-up: dose or concentration left out as unconfirmed. The class given is cell-based. The note with it: 48 hours. How it is done: CCK8 assays were performed to determine the killing effect of targeting peptide-induced calcification of lung cancer cells.

The test system of series [7] is A549 human non-small cell lung cancer cells. Description: Electron microscopy / EDX elemental scan of cell surface calcification, lung cancer cells. The note with it: 1 mg/mL, 48 hours, Ca2+ up to 2.75 mM, phosphate up to 1.61 mM. It counts as cell-based.
From the text: as §3

Series [8] has as its system Beas-2b human lung epithelial cells, and human umbilical vein endothelial cells (HUVECs). Description: Flow cytometry of cell surface-bound FITC-modified targeting peptide, normal cells. The class given is binding. The note with it: 100 μg/mL FITC-modified peptide, 30 min. How it is done: as §1
(In flow cytometry, cells or beads pass a laser one at a time.)

Consider `Nc1nc2ncc(CNc3ccc(C(=O)N[C@@H](CCC(=O)O)C(=O)O)cc3)nc2c(=O)[nH]1` [FA, folic acid], for which, in series [1], the body weight result was “dramatically reduces body weight”, the survival time entry is recorded as “severely decreases survival time” and the tumor growth result is on record as “promotes tumor growth”.

As to E6TDSILRSYDWTY, the “growth (and metastasis) of A549 lung cancer cells in vivo” value (“growth (and metastasis)” below) in the series with A549-Luci cells [2] is “significantly inhibited the growth of A549 cells”.

In the case of E10TDSILRSYDWTY, the “growth (and metastasis)” value in the series on A549-Luci cells [2] was “significantly inhibited the growth of A549 cells”.

For the compound E16TDSILRSYDWTY, the “growth (and metastasis)” value with A549-Luci cells [2] is “significantly inhibited the growth of A549 cells”.

In the case of E24 TDSILRSYDWTY [targeting peptide], the results for the “binding of targeting peptide to cell surface” value in series [3] and in series [8] were “selectively bound to the surface of lung cancer cells” and “did not bind to normal epithelial cells; also recorded: weakly bound to normal cells”, respectively. Moreover, in the series on A549-Luci cells [4], the “identification of calcified lung cancer on ultrasound” value was “evident as high-density calcified foci on ultrasound; also recorded: could be clearly identified on ultrasound”. In the series on A549-Luci cells [4], the “visualisation of calcified lung cancer on CT” value was “revealed a clear boundary on CT; also recorded: could be visualized on CT”. Besides, the “calcification on the cell surface (EDX calcium and phosphorus)” value in the series with lung epithelial cells was “without significantly affecting normal lung epithelial cells; also recorded: less deposition of calcium and phosphorus elements”. For the same compound, the “identification of pulmonary nodules by imaging” value in the series on pulmonary nodules is “could not be clearly identified by imaging”. In addition, the “toxic effects on normal lung epithelial cells” value in series [5] is on record as “without significant toxic effects on normal lung epithelial cells”. The “proliferative activity / killing effect” value in series [6] is “selectively inhibited the proliferative activities of various lung cancer cells”. For the same compound, the “calcification on the cell surface (EDX calcium and phosphorus peaks)” value in series [7] is “significantly increased calcification peaks”; in [7] (listed as CiP), “significantly increased”. Moreover, the “growth (and metastasis)” value in the series with A549-Luci cells [2] is “effectively inhibited the growth and metastasis of lung cancer”; with A549-Luci cells [2] (listed as CiP targeting peptide) it was “significantly inhibited the growth of A549 cells”.

As to E30TDSILRSYDWTY, in the series on A549-Luci cells [2], the “growth (and metastasis)” value is “significantly inhibited the growth of A549 cells”.
